Measured values taken from US20240262818A1, “Selenium Maleimide Compounds And Uses Thereof” (THE UNIVERSITY OF NORTH CAROLINA AT CHAPEL HILL, priority 2021, published 2024).

What was measured:
[1] = type: physicochemical
Protocol: Synthesis of Compound 1: Selenium (31.0 mg, 0.39 mmol, 1.00 equiv.) was suspended in an aqueous solution of 1M NaOH (6 mL) under Ar atmosphere. To the solution, Rongalite (i.e., sodium hydroxymethanesulfinate, Na^+HOCH2SO2^−) (120.0 mg, 0.78 mmol, 2.00 equiv.) was added and stirred vigorously. Then, the reaction solution was heated to 80° C. using an oil bath. After reacting for 0.5 h, hepta-4,6-diynoic acid (44.0 mg, 0.36 mmol, 0.92 equiv.) in ethanol (4 mL) was added and the reaction mixture was reacted at 80° C. for an additional 5 h. The reaction was allowed to cool to room temperature and diluted with a saturated NH4Cl aqueous solution (10 mL). The solution was transferred to separatory funnel and extracted with EtOAc (20 mL×3). The combined organic layer was washed with brine (50 mL) and dried over MgSO4, filtered, concentrated, and purified by flash chromatography (20:1 hexanes:ethyl acetate to 10:1 to 5:1 to 2:1 to 1:1) to yield selenium compound 1 in 45% yield (36 mg). Isotopically pure compounds were also prepared by following the above described procedure.

[2] = tested on: peripheral blood mononuclear cells (PBMC); assay: Labeling of PBMC with SeMal reagents, mass cytometry; type: cell-based; settings: viable, fixed and fixed and permeabilized PBMC
Protocol: (§1) 3×10^6 viable, paraformaldehyde-fixed, or fixed and permeabilized peripheral blood mononuclear cells (PBMC) were incubated for 15 min with the indicated concentration of SeMal reagent in 0.2 ml PBS. Binding reactions were stopped by the addition of 5-fold excess volume of Cell Staining Buffer (Fluidigm) followed by incubation with Iridium using standard protocols. Data representations are from gated viable single cells. Cell viability […] incubation (for the viable cell condition) was >98%.

[3] = tested on: viable peripheral blood mononuclear cells (PBMC); assay: Cell viability after SeMal incubation; type: cell-based; settings: at working concentrations
Protocol: as §1

Row | SMILES | stability on storage [1] | labeling of PBMC [2] | toxicity when labeling viable cells [3]
1 | O=C(O)CCc1ccc[se]1 [Compound 1] | sufficient stability |  | 
2 | O=C(CCc1ccc[se]1)NCCN1C(=O)C=CC1=O [Compound 2] |  | effectively label | non-toxic
